Reference: patent US7713934B2, “Thrombin peptide derivatives” (The Board of Regents, The University of Texas System, priority 2002, dated 2010)

How the values were obtained:
[1] = system: thrombin receptors; assay: Peptide competition for [125I]-alpha-thrombin binding to ME cells; settings: for Concentration Required for 30% Inhibition: [125I]-alpha-thrombin binding to ME cells; for fold higher concentration than p508-530 required for 30% inhibition of [125I]-alpha-thrombin binding: relative to p508-530
From the text: Thrombin peptide derivatives are believed to activate cells by binding to a high-affinity cell-surface thrombin receptor known as the non-proteolytically-activated thrombin receptor (hereinafter “NPAR”) (R. Horvat, et. al., J. Cell Sci. 108, 1155-1164 1995). Compounds which stimulate NPAR are said to be thrombin receptor agonists. NPAR activation can be assayed based on the ability of molecules to stimulate cell proliferation when added to fibroblasts in the presence of submitogenic concentrations of thrombin or molecules that activate protein kinase C or compete with ^125I-thrombin for high affinity binding17 to thrombin receptors, as disclosed in U.S. Pat. Nos. 5,352,664 and 5,500,412 and in Glenn et al., J. Peptide Research 1:65 (1988).
To further identify regions of thrombin involved in high-affinity binding and generation of mitogenic signals, two peptides representing specific domains within p508-530 were tested. The first peptide represented residues 519 to 530 of the B-chain region of human prothrombin, a region of thrombin that is highly conserved among serine proteases. The second peptide represented residues 517 to 520 of prothrombin, a region of thrombin homologous to the fibronectin cell binding domain.
Because p517-520 is homologous to the fibronectin cell binding domain, a peptide having the sequence Arg-Gly-[…]-Ser (SEQ ID NO:18; the sequence of the fibronectin specific peptide) was also tested for its ability to compete for [^125I]-alpha-thrombin binding.

[2] = system: NIL cells; settings: increasing concentrations, quiescent NIL cells, 2 and 4 nM alpha-thrombin; FIG. 6 of U.S. Pat. No. 5,500,412; cited from earlier work
[3] = system: full-thickness, 2 cm-diameter excisions on the dorsum; assay: Wound closure, full-thickness excisions in rats (Example 2, TP508-Ser); format: in vivo, male Sprague-Dawley rats; settings: for wound area reduced: 0.1 μg per wound, topical; for wound healing activity compared with TP508: Example 2, 0.1 μg per wound
Description: (§1) Two, full-thickness, 2 cm-diameter excisions were created on the dorsum of male Sprague-Dawley rats. […] Wound size was determined on post-wounding days 3, 7, and 10 by tracing the perimeter of the wound onto an acetate sheet and using digital analysis to compute the surface area of each wound.
Each group contained 8 rats.
(§2) Saline was used as the vehicle for the experiment. […] The working solution was maintained on ice throughout the experiment.
(§3) The working solution was maintained on ice throughout the experiment.
(§4) On post-wounding days 3, 7, and 10, the wounds were evaluated by tracing the wound perimeter onto a flexible acetate sheet, then determining wound area with digital analysis software.
Each data point represents the mean and standard error of the mean of 16 wounds from 8 rats. Statistical comparisons between groups were made using a repeated measures analysis of variance; Fisher's LSD was used for post hoc testing between groups.

[4] = system: full-thickness, 2 cm-diameter excisions on the dorsum; assay: Wound closure, full-thickness excisions in rats (Example 1, TP508-Ala); format: in vivo, male Sprague-Dawley rats; settings: for wound area smaller than controls: 0.1 μg per wound, topical; for wound healing activity compared with TP508: Example 1, 0.1 μg per wound
Description: as §1
Each group contained 6 rats.
as §2, §3, §4
Each data point represents the mean and standard error of the mean of 12 wounds from 6 rats. Statistical comparisons between groups were made using a repeated measures analysis of variance; Fisher's LSD was used for post hoc testing between groups.

[5] = Dimer formation / stability in saline solution by HPLC; format: physicochemical; settings: 5 mg/mL, 4° C.
From the text: Over a time period of 6 months, triplicate samples were taken at intervals from the solution.
The area percent of each HPLC peak was plotted in FIG. 3. The peak area percent corresponds directly to the percent of material in solution.
Over a time period of 1 month, triplicate samples were taken at intervals from the solution. […] The area percent of each HPLC peak was plotted in FIG. 4. The peak area percent corresponds directly to the percent of material in solution.
Over a time period of 1 month, triplicate samples were taken at intervals from the solution. […] The area percent of each HPLC peak was plotted in FIG. 5. The peak area percent corresponds directly to the percent of material in solution.

Arg-Gly-Ala-Ser (RGAS; Fibronectin Specific Peptide)
competition with [125I]-alpha-thrombin for binding ([1]; at a concentration of 1.3 μM): did not compete

DACEGDSGGPFV (Thrombin Peptide Derivative) [p519-530]
Concentration Required for 30% Inhibition [1]: 200 nM | Maximal % Inhibition ([1]; at 800 nM, ME cells): 51% | fold higher concentration than p508-530 required for 30% inhibition of [125I]-alpha-thrombin binding [1]: 33 fold | effect on DNA synthesis [2]: enhanced DNA synthesis

H-Ala-Gly-Tyr-Lys-Pro-Asp-Glu-Gly -Lys-Arg-Gly-Asp-Ala-Ser-Glu-Gly-Asp-Ser-Gly-Gly-Pro-Phe-Val-NH2 (H-AGYKPDEGKRGDASEGDSGGPFV-NH2) [TP508-Ser]
wound area reduced ([3]; post-wounding Day 7): 18.2% | wound area reduced ([3]; post-wounding Day 10): 43.3% | wound healing activity compared with TP508 [3]: equivalent to TP508 in efficacy and potency | wound healing activity compared with TP508 ([3]; listed as TP508 Cys→Ser): about the same level of activity toward the thrombin receptor as TP508

H-Ala-Gly-Tyr-Lys-Pro-Asp-Glu-Gly-Lys-Arg -Gly-Asp-Ala-Ala-Glu-Gly-Asp-Ser-Gly-Gly-Pro-Phe-Val-NH2 (H-AGYKPDEGKRGDAAEGDSGGPFV-NH2) [TP508-Ala]
wound area smaller than controls ([4]; post-wounding Day 7): 18.7% | wound area smaller than controls ([4]; post-wounding Day 10): 25.1% | wound healing activity compared with TP508 [4]: equivalent to TP508 in efficacy and potency | wound healing activity compared with TP508 ([4]; listed as TP508 Cys→Ala): about the same level of activity toward the thrombin receptor as TP508 | HPLC peak area of monomer / peptide over time ([5]; 1 month): no decrease over time | conversion to dimer ([5]; 1 month): does not convert to dimer | conversion to dimer ([5]; 6 months): no dimerization

RGDA (Thrombin Peptide) [p517-520]
Concentration Required for 30% Inhibition [1]: 300 nM | fold higher concentration than p508-530 required for 30% inhibition of [125I]-alpha-thrombin binding [1]: 50 fold | effect on DNA synthesis [2]: inhibited DNA synthesis
